Patent US10377698B2, “Diphenethylamine derivatives which are inter alia useful as analgesics and method for their production” (UNIVERSITY OF INNSBRUCK, priority 2015, dated 2019)
Structures can show the parent of a compound that is named as a salt. Where two headings read alike, the source gives them in different places.

Tests used:
human MOR = biological target: T1, human MOR (Homo sapiens, UniProt P35372); assay: Opioid receptor binding assay, competition binding, CHO cell membranes (MOR); details: membranes from CHO cells stably expressing human MOR; read-out: Affinity Ki MOR
T1 construct: expressed in transfected cells; host or cells: CHO cells (membranes)

human DOR = biological target: T2, human DOR (Homo sapiens, UniProt P41143); assay: Opioid receptor binding assay, competition binding, CHO cell membranes (DOR); details: membranes from CHO cells stably expressing human DOR; read-out: Affinity Ki DOR
T2 construct: expressed in transfected cells; host or cells: CHO cells (membranes)

[1] = set-up: species or system mice; details: mouse, in vivo, sc
KOR [2] = biological target: T3, KOR (Homo sapiens, UniProt P41145); assay: biochemical; type: binding; set-up: expressed in transfected cells; host or cells: CHO cells (membranes)
KOR [3] = biological target: T3, KOR; assay: biochemical; type: biochemical; set-up: expressed in transfected cells; host or cells: CHO cells (membranes); details: for Emax: read-out: [35S]GTPγS binding KOR Emax
KOR [4] = biological target: T3, KOR; assay: KOR-mediated β-arrestin2 recruitment, DiscoveRx PathHunter assay, U2OS-hMOR-β-arrestin2 cells; type: cell-based; details: for Emax: read-out: β-arrestin2 recruitment assay Emax
[5] = read-out: [35S]GTPγS binding KOR EC50

T1 sequence (P35372 whole entry): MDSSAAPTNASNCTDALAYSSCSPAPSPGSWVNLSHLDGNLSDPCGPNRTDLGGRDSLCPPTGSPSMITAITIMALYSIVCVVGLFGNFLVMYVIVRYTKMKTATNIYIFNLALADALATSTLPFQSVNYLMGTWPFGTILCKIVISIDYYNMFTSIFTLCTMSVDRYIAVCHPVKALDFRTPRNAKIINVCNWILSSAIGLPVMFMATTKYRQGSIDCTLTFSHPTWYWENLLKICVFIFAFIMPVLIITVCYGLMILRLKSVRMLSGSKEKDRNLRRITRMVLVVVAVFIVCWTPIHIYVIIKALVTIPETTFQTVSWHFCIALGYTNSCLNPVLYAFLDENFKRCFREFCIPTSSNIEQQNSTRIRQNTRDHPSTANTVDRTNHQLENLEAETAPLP
T3 sequence (P41145 whole entry): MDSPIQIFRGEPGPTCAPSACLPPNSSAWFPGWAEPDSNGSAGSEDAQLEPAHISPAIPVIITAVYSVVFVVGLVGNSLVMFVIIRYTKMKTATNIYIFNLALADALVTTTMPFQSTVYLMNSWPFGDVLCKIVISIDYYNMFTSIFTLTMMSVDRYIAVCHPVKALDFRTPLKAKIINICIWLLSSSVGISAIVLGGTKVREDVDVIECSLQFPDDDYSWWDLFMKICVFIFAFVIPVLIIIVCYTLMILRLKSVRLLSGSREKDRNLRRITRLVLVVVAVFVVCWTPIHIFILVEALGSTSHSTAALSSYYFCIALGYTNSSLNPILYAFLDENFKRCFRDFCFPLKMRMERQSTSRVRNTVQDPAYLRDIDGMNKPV
T2 sequence (P41143 whole entry): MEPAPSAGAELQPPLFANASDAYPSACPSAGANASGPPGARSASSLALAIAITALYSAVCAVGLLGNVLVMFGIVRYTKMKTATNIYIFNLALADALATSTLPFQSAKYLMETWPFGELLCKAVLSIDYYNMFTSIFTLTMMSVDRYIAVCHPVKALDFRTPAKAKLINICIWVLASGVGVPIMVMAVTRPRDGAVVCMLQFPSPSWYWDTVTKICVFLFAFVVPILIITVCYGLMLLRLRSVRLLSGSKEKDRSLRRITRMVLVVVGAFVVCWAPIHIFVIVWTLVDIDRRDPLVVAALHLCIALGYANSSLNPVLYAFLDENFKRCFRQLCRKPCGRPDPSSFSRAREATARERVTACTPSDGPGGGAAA

In the case of Oc1cccc(CCN(CCc2cccc(O)c2)CC2CCC2)c1 [Compound 12, 3,3′-[2,2′-(Cyclobutylmethylazanediyl)bis(ethane-2,1-diyl)]diphenol], the Ki (human MOR) is reported as 230 nM, the Ki (human DOR) is reported as 4180 nM and the ED50 writhing test [1] is reported as 1.59 mg/kg, s.c. For the same molecule, the “Relative analgesic potency to HS665” value [1] was 1.2, the “Relative analgesic potency to HS666” value [1] was 2.0 and the “Relative analgesic potency to U50,488” value [1] was 1.0. The Ki (KOR [2]) was 0.34 nM, the EC50 (KOR [3]) was 5.51 nM and the Emax (KOR [3]) was 71.4%.

Molecule Oc1cccc(CCN(CCc2ccccc2)CC2CCCCC2)c1F [Compound 51, 3-[2-[(Cyclohexylmethyl)(phenethyl)amino]ethyl]-2-fluorophenol] has a Ki (human MOR) of 543 nM, a Bias factor (KOR [4]) of 1514 and an EC50 (KOR [4]) of 4180 nM. The Emax (KOR [4]) was 48.4%, the ED50 writhing test [1] was 1.20 mg/kg, s.c and the “Relative analgesic potency to HS665” value [1] was 1.6. For the same molecule, the “Relative analgesic potency to HS666” value [1] was 2.7, the “Relative analgesic potency to U50,488” value [1] was 1.3 and the melting point was 129 to 130 °C. It also gave a Ki (KOR [2]) of 0.046 nM, an EC50 (KOR [3]; [5]) of 2.77 nM and an Emax (KOR [3]) of 84.6%.

Work on COc1cccc(CCN(CCc2ccc(O)cc2)CC2CCCC2)c1 [Compound 27, 4-[2-[(Cyclopentylmethyl)(3-methoxyphenethyl)amino]ethyl]phenol] yielded a Ki (human MOR) of 158 nM, a Ki (human DOR) of 6240 nM and a melting point of 74 to 77 °C. The Ki (KOR [2]) was 0.17 nM, the EC50 (KOR [3]) was 22.8 nM and the Emax (KOR [3]) was 73.6%.

Work on Oc1cccc(CCN(CCc2ccccc2)CC2CCCCC2)c1 [Compound 3, 3-[2-[(Cyclohexylmethyl)(phenethyl)amino]ethyl]phenol] yielded a Ki (human MOR) of 436 nM, a Ki (human DOR) of 2140 nM and a Bias factor (KOR [4]) of 2909. For the same molecule, the EC50 (KOR [4]) was 1360 nM, the Emax (KOR [4]) was 72.2% and the ED50 writhing test [1] was 0.97 mg/kg, s.c. For the same molecule, the “Relative analgesic potency to HS665” value [1] was 2.0, the “Relative analgesic potency to HS666” value [1] was 3.3 and the “Relative analgesic potency to U50,488” value [1] was 1.6. For the same molecule, the melting point was 150 to 151 °C, the Ki (KOR [2]) was 0.088 nM and the EC50 (KOR [3]; [5]) was 0.23 nM. For the same molecule, the Emax (KOR [3]) was 61.9%.

With CCCCN(CCc1cccc(O)c1)CCc1cccc(O)c1 the melting point was 62 to 64 °C.

Oc1cccc(CCN(CCc2ccccc2)C2CCC2)c1 gave a melting point of 100 to 101 °C.

In the case of Oc1cccc(CCN(CCc2cccc(O)c2)CC2CC2)c1, the melting point is reported as 106 to 107 °C.

CCCCN(CCc1ccc(O)cc1)CCc1cccc(O)c1 showed a melting point of 65 to 68 °C.

With Oc1cccc(CCN(CCc2cccc(O)c2)CC2CCCCC2)c1 [Compound 29, 3,3′-[2,2′-(Cyclohexylmethylazanediyl)bis(ethane-2,1-diyl)]diphenol] the Ki (human MOR) was 219 nM, the melting point was 157 to 158 °C and the Ki (KOR [2]) was 0.18 nM. It also gave an EC50 (KOR [3]) of 10.6 nM and an Emax (KOR [3]) of 92.2%.

Oc1cccc(CCN(CCc2cccc(O)c2F)CC2CCC2)c1 [Compound 53, 3-[2-[(Cyclobutylmethyl)(3-hydroxyphenethyl)amino]ethyl]-2-fluorophenol] gave a Ki (human MOR) of 548 nM, a Ki (human DOR) of 4750 nM and a Bias factor (KOR [4]) of 263. The EC50 (KOR [4]) was 529 nM, the Emax (KOR [4]) was 41.2% and the Ki (KOR [2]; read-out: Affinity Ki KOR) was 0.12 nM. It also gave an EC50 (KOR [3]; [5]) of 1.49 nM and an Emax (KOR [3]) of 53.1%.

Work on CCCCCCN(CCc1cccc(O)c1)CCc1cccc(O)c1 yielded a melting point of 75 to 76 °C.

With Oc1cccc(CCN(CCc2ccccc2)CC2CCC2)c1 [HS665, reference compound] the Ki (human DOR) was greater than 10000 nM and the ED50 writhing test [1] was 1.91 mg/kg, s.c.

For Cl.Oc1cccc(CCN(CCc2ccccc2)CC2CC2)c1 [HS666, 3-[2-[(Cyclopropylmethyl)(phenethyl)amino]ethyl]phenol Hydrochloride, reference compound], the Ki (human MOR) was 826 nM, the Ki (human DOR) was greater than 10000 nM and the Bias factor (KOR [4]) was 18. The EC50 (KOR [4]) was 502 nM, the Emax (KOR [4]) was 25% and the ED50 writhing test [1] was 3.23 mg/kg, s.c. The “Relative analgesic potency to HS665” value [1] was 0.6, the “Relative analgesic potency to HS666” value [1] was 1.0 and the “Relative analgesic potency to U50,488” value [1] was 0.5. The Ki (KOR [2]; read-out: Affinity Ki KOR) was 5.9 nM, the EC50 (KOR [3]; [5]) was 35 nM and the Emax (KOR [3]) was 53.4%.

With Oc1cccc(CCN(CCc2ccccc2)Cc2ccccc2)c1 [Compound 4, 3-[2-[Benzyl(phenethyl)amino]ethyl]phenol] the Ki (human MOR) was 463 nM, the Ki (human DOR) was 1860 nM and the Bias factor (KOR [4]) was 1172. The EC50 (KOR [4]; DiscoveRx PathHunter assay, U2OS-hMOR cells, read-out: β-arrestin2 recruitment assay EC50) was 4450 nM, the Emax (KOR [4]) was 37.3% and the “Relative analgesic potency to HS665” value [1] was 1.6. The “Relative analgesic potency to HS666” value [1] was 2.7, the “Relative analgesic potency to U50,488” value [1] was 1.3 and the melting point was 177 to 178 °C. For the same molecule, the Ki (KOR [2]; read-out: Affinity Ki KOR) was 0.71 nM, the EC50 (KOR [3]; [5]) was 4.65 nM and the Emax (KOR [3]) was 79.5%.

Work on Oc1cccc(CCN(CCc2ccccc2)Cc2ccccc2)c1F yielded a melting point of 126 to 128 °C.

Molecule Oc1ccc(CCN(CCc2ccccc2)CC2CCCC2)cc1 has a melting point of 150 to 153 °C.

Oc1cccc(CCN(CCc2ccccc2)CC2CCC2)c1F [Compound 49, 3-[2-[(Cyclobutylmethyl)(phenethyl)amino]ethyl]-2-fluorophenol] gave a Ki (human MOR) of 414 nM, a Bias factor (KOR [4]) of 82 and an EC50 (KOR [4]) of 859 nM. It also gave an Emax (KOR [4]) of 57.5%, a Ki (KOR [2]) of 0.022 nM and an EC50 (KOR [3]; [5]) of 6.9 nM. The Emax (KOR [3]) was 66.1%.

With Oc1cccc(CCN(CCc2cccc(O)c2)CC2CCCC2)c1 [Compound 39, 3,3′-[2,2′-(Cyclopentylmethylazanediyl)bis(ethane-2,1-diyl)]diphenol] the Ki (human MOR) was 702 nM, the melting point was 113 °C and the Ki (KOR [2]) was 0.38 nM. For the same molecule, the EC50 (KOR [3]) was 14.2 nM and the Emax (KOR [3]) was 83.6%.

Work on CC(C)CCN(CCc1cccc(O)c1)CCc1cccc(O)c1 yielded a melting point of 71 to 72 °C.

With Oc1ccc(CCN(CCc2cccc(O)c2)CC2CCCCC2)cc1 the melting point was 155 to 157 °C.

With C=CCN(CCc1ccc(O)cc1)CCc1cccc(O)c1 the melting point was 103 to 105 °C.

Work on C=CCN(CCc1cccc(O)c1)CCc1cccc(O)c1 yielded a melting point of 104 to 106 °C.

Molecule Nc1cccc(CCN(CCc2ccccc2)CC2CCC2)c1 (as salt: hydrochloride) has a melting point of 68 to 70 °C.

Work on Oc1cccc(CCN(CCc2ccccc2)CC2CCCC2)c1 [Compound 2, 3-[2-[(Cyclopentylmethyl)(phenethyl)amino]ethyl]phenol] yielded a Ki (human DOR) of 5210 nM, an EC50 (KOR [4]) of 1340 nM and an Emax (KOR [4]) of 83%. The ED50 writhing test [1] was 0.54 mg/kg, s.c, the “Relative analgesic potency to HS665” value [1] was 3.5 and the “Relative analgesic potency to HS666” value [1] was 6.0. For the same molecule, the “Relative analgesic potency to U50,488” value [1] was 2.9, the melting point was 154 to 156 °C and the EC50 (KOR [3]) was 4.19 nM. For the same molecule, the Emax (KOR [3]) was 72.9%.

With CCCCCN(CCc1cccc(O)c1)CCc1cccc(O)c1 the melting point was 70 to 72 °C.

For CC(C)CCN(CCc1ccccc1)CCc1cccc(O)c1, the melting point was 149 to 150 °C.

With Oc1ccc(CCN(CCc2cccc(O)c2)CC2CC2)cc1 the melting point was 104 to 105 °C.
